Reference: PubChem BioAssay AID1963848 (Molecular Pharmacology Branch, DTP, NCI, 2024)

Test system: 379773-124-R-J2-PDC spheroid viability
Experiment: Anticancer human tumor 379773-124-R-J2-PDC patient-derived endometrial carcinoma cell line growth inhibition [POLQ]
Conditions: spheroids with HUVEC and MSC; for IC50: curve of first compound; for viability, T/C: stronger effect = lower value; active = viability on the fitted dose curve at most 10% of control; inactive = the rest
Method: Multicellular complex tumor spheroid response to Polymerase (POL) inhibitors (novobiocin, ART-558, RP6685) in combination with a variety of drugs and investigational agents in selected tumor cell lines
The POL inhibitors (novobiocin, ART-558, and RP6685) were evaluated both individually and in combination with standard of care and investigational anticancer small molecules within a complex spheroid model of solid tumors. . Complex spheroids include a stromal component modeled by human endothelial cells (HUVEC) and fibroblasts modeled by human mesenchymal stem cells (MSCs). The concentration ranges selected for each drug and investigational agent were based upon clinically achievable concentrations if the clinical Cmax of the agent was known.
Compounds. The drugs and investigational agents: novobiocin (NSC847541), ART-558 (NSC835418), RP-6685 (NSC848927), peposertib (NSC802822), ceralasertib (NSC780249), elimusertib (NSC800525), camonsertib (NSC841442), AZD-1390 (NSC803789), olaparib (NSC753686), talazoparib (NSC767125), rucaparib (NSC756644), sotorasib (NSC818433), MRTX-1133 (NSC836407), SN-38 (NSC673596), topotecan (NSC609699), epotoside (NSC141540), doxorubicin (NSC123127), gemcitabine (NSC613327), 5-fluorouracil (NSC19893), paclitaxel (NSC125973), vemurafenib (NSC761431), MSA-2 (NSC828583), SN-011 (NSC837082), adavosertib (NSC754352), prexasertib (NSC758257), carboplatin (NSC241240) and oxaliplatin (NSC266046), were obtained from the National Cancer Institute (NCI) Developmental Therapeutics Program Chemical Repository (21). The FDA-approved anticancer drug set is available from the Developmental Therapeutics Program at https://dtp.cancer.gov/organization/dscb/obtaining/. […] The stock solutions were prepared in dimethyl sulfoxide (DMSO, Sigma-Aldrich, St. Louis, MO, cat. D2650), except for the platinum compounds which were prepared in saline (Quality Biological, Gaithersburg, MD, cat. 114-055-101), at 800-fold the tested concentration and stored at -70 degrees C prior to their use. All drugs and investigational agents were tested over a range starting from a high concentration at or near the clinical Cmax and decreasing in half-log increments. If the clinical Cmax for an agent had not been determined, the highest concentration tested was 10 microM, except for SN-38, which was tested at a high concentration of 1 microM.
Cell Culture. All cells were maintained in an incubator at 37 degrees C and 5% CO2 with 95% humidity. The PDC lines were cultured according to standard operating procedures established by the NCI PDMR (https://pdmr.cancer.gov). Table 3 of the manuscript, lists the cell lines along with the number of the three cell types plated to form the mct-spheroids and media for tumor cell growth. After thawing, all PDC lines, except 997537-175-T-J1-PDC and 415267-285-R-J2-PDC, were cultured in Matrigel-coated flasks prepared with a working solution of 1X Ham's F-12 nutrient mix, without supplementation (Thermo Fisher Scientific, cat. 11765054), 100 U/mL penicillin-streptomycin (Thermo Fisher Scientific, cat. 15140122), and 2.5% Matrigel (Corning Inc., Corning, NY, cat. 354248) for the first three passages. The two PDC lines 997537-175-T-J1-PDC and 415267-285-R-J2-PDC were cultured on uncoated flasks. The 857933-349-R-J2-PDC line was cultured in 6C/Colon 1B media containing advanced DMEM/F-12 (Thermo Fisher Scientific, cat. 12634028), 10 mM HEPES (Thermo Fisher Scientific, cat. 15630080), 1X GlutaMAX supplement (Thermo Fisher Scientific, cat. 35050061), 0.1 mg/mL primocin (InvivoGen, San Diego, CA, cat. ant-pm-2), 10% defined fetal bovine serum, heat inactivated (HyClone Laboratories Inc., Logan, UT, cat. SH30070.03HI), 50% L-WRN conditioned media (ATCC, cat. CRL-3276), 1.25 mM N-Acetyl-L-cysteine (Sigma-Aldrich, cat. A9165), 10 mM nicotinamide (Sigma-Aldrich, cat. N0636), 1X B-27 supplement (Thermo Fisher Scientific, cat. 17504044), 1X N-2 supplement (Thermo Fisher Scientific, cat. […]

[1] = second compound 0.0316 µM, first compound 0.0316 µM
[2] = second compound 0.0316 µM, first compound 0.1 µM
[3] = second compound 0.0316 µM, first compound 0.316 µM
[4] = second compound 0.0316 µM, first compound 1 µM
[5] = second compound 0.0316 µM, first compound 3.16 µM
[6] = second compound 0.0316 µM, first compound 10 µM
[7] = second compound 0.1 µM, first compound 0.0316 µM
[8] = second compound 0.1 µM, first compound 0.1 µM
[9] = second compound 0.1 µM, first compound 0.316 µM
[10] = second compound 0.1 µM, first compound 1 µM
[11] = second compound 0.1 µM, first compound 3.16 µM
[12] = second compound 0.1 µM, first compound 10 µM
[13] = second compound 0.316 µM, first compound 0.0316 µM
[14] = second compound 0.316 µM, first compound 0.1 µM
[15] = second compound 0.316 µM, first compound 0.316 µM
[16] = second compound 0.316 µM, first compound 1 µM
[17] = second compound 0.316 µM, first compound 3.16 µM
[18] = second compound 0.316 µM, first compound 10 µM
[19] = second compound 1 µM, first compound 0.0316 µM
[20] = second compound 1 µM, first compound 0.1 µM
[21] = second compound 1 µM, first compound 0.316 µM
[22] = second compound 1 µM, first compound 1 µM
[23] = second compound 1 µM, first compound 3.16 µM
[24] = second compound 1 µM, first compound 10 µM
[25] = second compound 3.16 µM, first compound 0.0316 µM
[26] = second compound 3.16 µM, first compound 0.1 µM
[27] = second compound 3.16 µM, first compound 0.316 µM
[28] = second compound 3.16 µM, first compound 1 µM
[29] = second compound 3.16 µM, first compound 3.16 µM
[30] = second compound 3.16 µM, first compound 10 µM
[31] = second compound 10 µM, first compound 0.0316 µM
[32] = second compound 10 µM, first compound 0.1 µM
[33] = second compound 10 µM, first compound 0.316 µM
[34] = second compound 10 µM, first compound 1 µM
[35] = second compound 10 µM, first compound 3.16 µM
[36] = second compound 10 µM, first compound 10 µM
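Note: spheroids exposed to drugs for seven days before readout.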
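Throughout, for viability, T/C: percent viability relative to DMSO vehicle control taken as 100%.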

C#Cc1c(F)ccc2cc(O)cc(-c3ncc4c(N5CC6CCC(C5)N6)nc(OCC56CCCN5CC(F)C6)nc4c3F)c12 (stereo unspecified) + COC1C(OC(N)=O)C(O)C(Oc2ccc3c(O)c(NC(=O)c4ccc(O)c(CC=C(C)C)c4)c(=O)oc3c2C)OC1(C)C
inactive: viability, T/C [1] 89% | viability, T/C [2] 85.8% | viability, T/C [3] 84.4% | viability, T/C [4] 81% | viability, T/C [5] 97.9% | viability, T/C [6] 88.6% | viability, T/C [7] 95.8% | viability, T/C [8] 78.2% | viability, T/C [9] 92.1% | viability, T/C [10] 75.5% | viability, T/C [11] 77.4% | viability, T/C [12] 95% | viability, T/C [13] 91% | viability, T/C [14] 83.9% | viability, T/C [15] 79.7% | viability, T/C [16] 84.5% | viability, T/C [17] 87.6% | viability, T/C [18] 93.4% | viability, T/C [19] 80.8% | viability, T/C [20] 84.3% | viability, T/C [21] 89.9% | viability, T/C [22] 86.8% | viability, T/C [23] 75% | viability, T/C [24] 93.9% | viability, T/C [25] 78.5% | viability, T/C [26] 81.7% | viability, T/C [27] 90.2% | viability, T/C [28] 78.5% | viability, T/C [29] 89.7% | viability, T/C [30] 96.8% | viability, T/C [31] 75.3% | viability, T/C [32] 85.8% | viability, T/C [33] 103% | viability, T/C [34] 79.4% | viability, T/C [35] 75.8% | viability, T/C [36] 106%
> 10 µM: IC50 (second compound 0.0316 µM) | IC50 (second compound 0.1 µM) | IC50 (second compound 0.316 µM) | IC50 (second compound 1 µM) | IC50 (second compound 3.16 µM) | IC50 (second compound 10 µM)

CCc1c2c(nc3ccc(O)cc13)-c1cc3c(c(=O)n1C2)COC(=O)[C@]3(O)CC + COC1C(OC(N)=O)C(O)C(Oc2ccc3c(O)c(NC(=O)c4ccc(O)c(CC=C(C)C)c4)c(=O)oc3c2C)OC1(C)C
active: viability, T/C (second compound 0.0316 µM, first compound 0.01 µM) 8.01% | viability, T/C [1] 6.39% | viability, T/C [2] 2.16% | viability, T/C [3] 1.05% | viability, T/C [4] 0.62% | viability, T/C [7] 5.4% | viability, T/C [8] 1.94% | viability, T/C [9] 0.57% | viability, T/C [10] 1.04% | viability, T/C (second compound 0.316 µM, first compound 0.01 µM) 8.27% | viability, T/C [13] 5.04% | viability, T/C [14] 2.09% | viability, T/C [15] 2.43% | viability, T/C [16] 0.41% | viability, T/C (second compound 1 µM, first compound 0.01 µM) 9.16% | viability, T/C [19] 5.09% | viability, T/C [20] 1.92% | viability, T/C [21] 0.94% | viability, T/C [22] 0.31% | viability, T/C [25] 5.39% | viability, T/C [26] 2.03% | viability, T/C [27] 0.93% | viability, T/C [28] 0.3% | viability, T/C (second compound 10 µM, first compound 0.01 µM) 7.13% | viability, T/C [31] 6.51% | viability, T/C [32] 1.69% | viability, T/C [33] 1.78% | viability, T/C [34] 0.49%
inactive: viability, T/C (second compound 0.0316 µM, first compound 0.00316 µM) 42.4% | viability, T/C (second compound 0.1 µM, first compound 0.00316 µM) 49.5% | viability, T/C (second compound 0.1 µM, first compound 0.01 µM) 11.7% | viability, T/C (second compound 0.316 µM, first compound 0.00316 µM) 45.1% | viability, T/C (second compound 1 µM, first compound 0.00316 µM) 40% | viability, T/C (second compound 3.16 µM, first compound 0.00316 µM) 41.8% | viability, T/C (second compound 3.16 µM, first compound 0.01 µM) 9.15% | viability, T/C (second compound 10 µM, first compound 0.00316 µM) 41.5%
< 0.00316 µM: IC50 (second compound 0.0316 µM) | IC50 (second compound 0.1 µM) | IC50 (second compound 0.316 µM) | IC50 (second compound 1 µM) | IC50 (second compound 3.16 µM) | IC50 (second compound 10 µM)

COc1cc2cc(C(=O)CCC(=O)O)sc2cc1OC + COC1C(OC(N)=O)C(O)C(Oc2ccc3c(O)c(NC(=O)c4ccc(O)c(CC=C(C)C)c4)c(=O)oc3c2C)OC1(C)C
> 10 µM: IC50 (second compound 0.0316 µM) | IC50 (second compound 0.1 µM) | IC50 (second compound 0.316 µM) | IC50 (second compound 1 µM) | IC50 (second compound 3.16 µM) | IC50 (second compound 10 µM)
inactive: viability, T/C [1] 85.9% | viability, T/C [2] 75.8% | viability, T/C [3] 92.1% | viability, T/C [4] 82.5% | viability, T/C [5] 78% | viability, T/C [6] 91.4% | viability, T/C [7] 88.2% | viability, T/C [8] 82% | viability, T/C [9] 90.2% | viability, T/C [10] 83.3% | viability, T/C [11] 85.5% | viability, T/C [12] 96.6% | viability, T/C [13] 96% | viability, T/C [14] 83.6% | viability, T/C [15] 76.5% | viability, T/C [16] 82.1% | viability, T/C [17] 81% | viability, T/C [18] 84.6% | viability, T/C [19] 82.7% | viability, T/C [20] 84.1% | viability, T/C [21] 90.9% | viability, T/C [22] 89% | viability, T/C [23] 90% | viability, T/C [24] 78.2% | viability, T/C [25] 99.9% | viability, T/C [26] 82.5% | viability, T/C [27] 78.1% | viability, T/C [28] 78.7% | viability, T/C [29] 90.2% | viability, T/C [30] 85.3% | viability, T/C [31] 92.8% | viability, T/C [32] 86.1% | viability, T/C [33] 86% | viability, T/C [34] 69.2% | viability, T/C [35] 86.1% | viability, T/C [36] 95.4%
